Test results: ChEMBL document CHEMBL4316596, “Antimicrobial Peptides with High Proteolytic Resistance for Combating Gram-Negative Bacteria” (J Med Chem, 2019)

Tests used:
Acinetobacter baumannii [1] = assay: Antimicrobial activity against Acinetobacter baumannii after 24 hrs by NCCLS-protocol based assay; type: functional
Pseudomonas aeruginosa [2] = assay: Bactericidal activity against Pseudomonas aeruginosa CICC 21630 clinical isolates incubated for 4 hrs followed by culture spread on agar plates and cultured overnight; type: functional; details: CICC 21630, 4 h, read-out: MBC>99.9
Escherichia coli [3] = assay: Bactericidal activity against Escherichia coli ATCC 25922 incubated for 4 hrs followed by culture spread on agar plates and cultured overnight in presence of CaCl2; type: functional; details: ATCC 25922, 4 h, read-out: MBC>99.9
Escherichia coli [4] = assay: Bactericidal activity against Escherichia coli ATCC 25922 incubated for 4 hrs followed by culture spread on agar plates and cultured overnight in presence of NaCl; type: functional; details: ATCC 25922, 4 h, read-out: MBC>99.9
Pseudomonas aeruginosa [5] = assay: Antimicrobial activity against Pseudomonas aeruginosa 26305 clinical isolates after 24 hrs by NCCLS-protocol based assay; type: functional; details: Pseudomonas aeruginosa, 26305, 24 h
Escherichia coli [6] = assay: Bactericidal activity against Escherichia coli K88 incubated for 4 hrs followed by culture spread on agar plates and cultured overnight; type: functional; details: K88, 4 h, read-out: MBC>99.9
Escherichia coli [7] = assay: Bactericidal activity against Escherichia coli ATCC 25922 incubated for 4 hrs followed by culture spread on agar plates and cultured overnight in presence of 25% serum albumin; type: functional; details: ATCC 25922, 4 h, read-out: MBC>99.9
Acinetobacter baumannii [8] = assay: Bactericidal activity against Acinetobacter baumannii incubated for 4 hrs followed by culture spread on agar plates and cultured overnight; type: functional; details: read-out: MBC>99.9
Escherichia coli [9] = assay: Antimicrobial activity against Escherichia coli ATCC 25922 after 24 hrs by NCCLS-protocol based assay; type: functional; details: ATCC 25922, 24 h
Escherichia coli [10] = assay: Bactericidal activity against Escherichia coli K99 incubated for 4 hrs followed by culture spread on agar plates and cultured overnight; type: functional; details: K99, 4 h, read-out: MBC>99.9
Escherichia coli [11] = assay: Bactericidal activity against Escherichia coli UB1005 incubated for 4 hrs followed by culture spread on agar plates and cultured overnight; type: functional; details: UB1005, 4 h, read-out: MBC>99.9
Pseudomonas aeruginosa [12] = assay: Bactericidal activity against Pseudomonas aeruginosa PAO1 incubated for 4 hrs followed by culture spread on agar plates and cultured overnight; type: functional; details: PAO1, 4 h, read-out: MBC>99.9
Escherichia coli [13] = assay: Bactericidal activity against Escherichia coli ATCC 25922 incubated for 4 hrs followed by culture spread on agar plates and cultured overnight in presence of 12.5% serum albumin; type: functional; details: ATCC 25922, 4 h, read-out: MBC>99.9
Klebsiella pneumoniae [14] = assay: Antimicrobial activity against Klebsiella pneumoniae after 24 hrs by NCCLS-protocol based assay; type: functional
Salmonella typhimurium [15] = assay: Antimicrobial activity against Salmonella typhimurium C7731 after 24 hrs by NCCLS-protocol based assay; type: functional, Salmonella enterica subsp. enterica serovar Typhimurium; details: Salmonella enterica, C7731, 24 h
Pseudomonas aeruginosa [16] = assay: Antimicrobial activity against Pseudomonas aeruginosa ATCC 27853 after 24 hrs by NCCLS-protocol based assay; type: functional; details: ATCC 27853, 24 h
Escherichia coli [17] = assay: Bactericidal activity against Escherichia coli 078 incubated for 4 hrs followed by culture spread on agar plates and cultured overnight; type: functional; details: Escherichia coli, 078, 4 h; read-out: MBC>99.9
Pseudomonas aeruginosa [18] = assay: Bactericidal activity against Pseudomonas aeruginosa 26305 clinical isolates incubated for 4 hrs followed by culture spread on agar plates and cultured overnight; type: functional; details: Pseudomonas aeruginosa, 26305, 4 h; read-out: MBC>99.9
Escherichia coli [19] = assay: Bactericidal activity against Escherichia coli ATCC 25922 incubated for 4 hrs followed by culture spread on agar plates and cultured overnight; type: functional; details: ATCC 25922, 4 h, read-out: MBC>99.9
Escherichia coli [20] = assay: Bactericidal activity against Escherichia coli ATCC 25922 incubated for 4 hrs followed by culture spread on agar plates and cultured overnight in presence of 50% serum albumin; type: functional; details: ATCC 25922, 4 h, read-out: MBC>99.9
Klebsiella pneumoniae [21] = assay: Bactericidal activity against Klebsiella pneumoniae incubated for 4 hrs followed by culture spread on agar plates and cultured overnight; type: functional; details: read-out: MBC>99.9
Escherichia coli [22] = assay: Bactericidal activity against Escherichia coli ATCC 25922 incubated for 4 hrs followed by culture spread on agar plates and cultured overnight in presence of KCl; type: functional; details: ATCC 25922, 4 h, read-out: MBC>99.9
Pseudomonas aeruginosa [23] = assay: Antimicrobial activity against Pseudomonas aeruginosa PAO1 after 24 hrs by NCCLS-protocol based assay; type: functional; details: PAO1, 24 h
[24] = Antimicrobial activity against Salmonella pullorum C7913 after 24 hrs by NCCLS-protocol based assay; type: functional, Salmonella enterica subsp. enterica serovar Pullorum; details: Salmonella enterica, C7913, 24 h
Salmonella typhimurium [25] = assay: Antimicrobial activity against Salmonella typhimurium ATCC 14028 after 24 hrs by NCCLS-protocol based assay; type: functional, Salmonella enterica subsp. enterica serovar Typhimurium; details: Salmonella enterica, ATCC 14028, 24 h
Escherichia coli [26] = assay: Antimicrobial activity against Escherichia coli UB1005 after 24 hrs by NCCLS-protocol based assay; type: functional; details: UB1005, 24 h
Escherichia coli [27] = assay: Bactericidal activity against Escherichia coli ATCC 25922 incubated for 4 hrs followed by culture spread on agar plates and cultured overnight in presence of NH4Cl; type: functional; details: ATCC 25922, 4 h, read-out: MBC>99.9
Salmonella typhimurium [28] = assay: Bactericidal activity against Salmonella typhimurium ATCC 14028 incubated for 4 hrs followed by culture spread on agar plates and cultured overnight; type: functional, Salmonella enterica subsp. enterica serovar Typhimurium; details: Salmonella enterica, ATCC 14028, 4 h; read-out: MBC>99.9
Escherichia coli [29] = assay: Bactericidal activity against Escherichia coli ATCC 25922 incubated for 4 hrs followed by culture spread on agar plates and cultured overnight in presence of FeCl3; type: functional; details: ATCC 25922, 4 h, read-out: MBC>99.9
Pseudomonas aeruginosa [30] = assay: Antimicrobial activity against Pseudomonas aeruginosa 25349 clinical isolates after 24 hrs by NCCLS-protocol based assay; type: functional; details: Pseudomonas aeruginosa, 25349, 24 h
Pseudomonas aeruginosa [31] = assay: Antimicrobial activity against Pseudomonas aeruginosa CICC 21625 clinical isolates after 24 hrs by NCCLS-protocol based assay; type: functional; details: CICC 21625, 24 h
Pseudomonas aeruginosa [32] = assay: Bactericidal activity against Pseudomonas aeruginosa ATCC 27853 incubated for 4 hrs followed by culture spread on agar plates and cultured overnight; type: functional; details: ATCC 27853, 4 h, read-out: MBC>99.9
Pseudomonas aeruginosa [33] = assay: Bactericidal activity against Pseudomonas aeruginosa CICC 21625 clinical isolates incubated for 4 hrs followed by culture spread on agar plates and cultured overnight; type: functional; details: CICC 21625, 4 h, read-out: MBC>99.9
Salmonella typhimurium [34] = assay: Bactericidal activity against Salmonella typhimurium C7731 incubated for 4 hrs followed by culture spread on agar plates and cultured overnight; type: functional, Salmonella enterica subsp. enterica serovar Typhimurium; details: Salmonella enterica, C7731, 4 h; read-out: MBC>99.9
Escherichia coli [35] = assay: Bactericidal activity against Escherichia coli ATCC 25922 incubated for 4 hrs followed by culture spread on agar plates and cultured overnight in presence of MgCl2; type: functional; details: ATCC 25922, 4 h, read-out: MBC>99.9
Escherichia coli [36] = assay: Bactericidal activity against Escherichia coli ATCC 25922 incubated for 4 hrs followed by culture spread on agar plates and cultured overnight in presence of ZnCl2; type: functional; details: ATCC 25922, 4 h, read-out: MBC>99.9
Escherichia coli [37] = assay: Antimicrobial activity against Escherichia coli K88 after 24 hrs by NCCLS-protocol based assay; type: functional; details: K88, 24 h
[38] = Bactericidal activity against Salmonella pullorum C7913 incubated for 4 hrs followed by culture spread on agar plates and cultured overnight; type: functional, Salmonella enterica subsp. enterica serovar Pullorum; details: Salmonella enterica, C7913, 4 h; read-out: MBC>99.9
Pseudomonas aeruginosa [39] = assay: Antimicrobial activity against Pseudomonas aeruginosa CICC 21630 clinical isolates after 24 hrs by NCCLS-protocol based assay; type: functional; details: CICC 21630, 24 h
Escherichia coli [40] = assay: Antimicrobial activity against Escherichia coli K99 after 24 hrs by NCCLS-protocol based assay; type: functional; details: K99, 24 h
Escherichia coli [41] = assay: Antimicrobial activity against Escherichia coli 078 after 24 hrs by NCCLS-protocol based assay; type: functional; details: Escherichia coli, 078, 24 h
Pseudomonas aeruginosa [42] = assay: Bactericidal activity against Pseudomonas aeruginosa 25349 clinical isolates incubated for 4 hrs followed by culture spread on agar plates and cultured overnight; type: functional; details: Pseudomonas aeruginosa, 25349, 4 h; read-out: MBC>99.9

H-LRPLLRPLLRPLLRPLLRPLLRPL-NH2
MIC95 (Acinetobacter baumannii [1]): 2 µM
MBC (Pseudomonas aeruginosa [2]): 16 µM
MBC (Escherichia coli [3]): > 128 µM
MBC (Escherichia coli [4]): 4 µM
MIC95 (Pseudomonas aeruginosa [5]): 32 µM
MBC (Escherichia coli [6]): 4 µM
MBC (Escherichia coli [7]): 16 µM
MBC (Acinetobacter baumannii [8]): 4 µM
MIC95 (Escherichia coli [9]): 2 µM
MBC (Escherichia coli [10]): 4 µM
MBC (Escherichia coli [11]): 4 µM
MBC (Pseudomonas aeruginosa [12]): 8 µM
MBC (Escherichia coli [13]): 8 µM
MIC95 (Klebsiella pneumoniae [14]): 8 µM
MIC95 (Salmonella typhimurium [15]): 2 µM
MIC95 (Pseudomonas aeruginosa [16]): 8 µM
MBC (Escherichia coli [17]): 2 µM
MBC (Pseudomonas aeruginosa [18]): 32 µM
MBC (Escherichia coli [19]): 2 µM
MBC (Escherichia coli [20]): 32 µM
MBC (Klebsiella pneumoniae [21]): 8 µM
MBC (Escherichia coli [22]): 2 µM
MIC95 (Pseudomonas aeruginosa [23]): 4 µM
MIC95 [24]: 2 µM
MIC95 (Salmonella typhimurium [25]): 4 µM
MIC95 (Escherichia coli [26]): 2 µM
MBC (Escherichia coli [27]): 2 µM
MBC (Salmonella typhimurium [28]): 8 µM
MBC (Escherichia coli [29]): 4 µM
MIC95 (Pseudomonas aeruginosa [30]): 32 µM
MIC95 (Pseudomonas aeruginosa [31]): 32 µM
MBC (Pseudomonas aeruginosa [32]): 16 µM
MBC (Pseudomonas aeruginosa [33]): 32 µM
MBC (Salmonella typhimurium [34]): 8 µM
MBC (Escherichia coli [35]): 4 µM
MBC (Escherichia coli [36]): 2 µM
MIC95 (Escherichia coli [37]): 2 µM
MBC [38]: 4 µM
MIC95 (Pseudomonas aeruginosa [39]): 8 µM
MIC95 (Escherichia coli [40]): 2 µM
MIC95 (Escherichia coli [41]): 2 µM
MBC (Pseudomonas aeruginosa [42]): 32 µM
